Holding throughout (assay type): functional
The subject of test [1] is T47D. The experiment in a line: Growth inhibition of human T47D cells assessed as cell growth at 10^-6 M incubated for 48 hrs by sulforhodamine B assay relative to control. Conditions: read-out: Activity. For orientation: Sulforhodamine B stains cellular protein and so reports cell mass.
Test [2] has as its system MDA-MB-468. The experiment in a line: Growth inhibition of human MDA-MB-468 cells assessed as cell growth at 10^-6 M incubated for 48 hrs by sulforhodamine B assay relative to control. The conditions noted are these: MDA-MB-468, 48 h, read-out: Activity.
Test [3] concerns A549. Description: Growth inhibition of human A549/ATCC cells assessed as cell growth at 10^-5 M incubated for 48 hrs by sulforhodamine B assay relative to control. Conditions: A549, 48 h, read-out: Activity.
Test [4] deals with EKVX. Description: Growth inhibition of human EKVX cells assessed as cell growth at 10^-5 M incubated for 48 hrs by sulforhodamine B assay relative to control. Conditions: read-out: Activity.
Test [5] concerns HOP-92. The experiment in a line: Growth inhibition of human HOP92 cells assessed as cell growth at 10^-5 M incubated for 48 hrs by sulforhodamine B assay relative to control. Conditions: HOP-92, 48 h, read-out: Activity.
Test [6] relates to HCC 2998. Description: Growth inhibition of human HCC2998 cells assessed as cell growth at 10^-5 M incubated for 48 hrs by sulforhodamine B assay relative to control. The conditions noted are these: HCC 2998, 48 h, read-out: Activity.
The test system of test [7] is HT-29. The experiment in a line: Growth inhibition of human HT-29 cells assessed as cell growth at 10^-5 M incubated for 48 hrs by sulforhodamine B assay relative to control. The conditions noted are these: HT-29, 48 h, read-out: Activity.
In test [8] the test system is LOX IMVI. Description: Growth inhibition of human LOXIMVI cells assessed as cell growth at 10^-5 M incubated for 48 hrs by sulforhodamine B assay relative to control. The conditions noted are these: read-out: Activity.
In test [9] the test system is SK-MEL-2. Description: Growth inhibition of human SK-MEL-2 cells assessed as cell growth at 10^-5 M incubated for 48 hrs by sulforhodamine B assay relative to control. The conditions noted are these: SK-MEL-2, 48 h, read-out: Activity.
The test system of test [10] is SK-MEL-5. Description: Growth inhibition of human SK-MEL-5 cells assessed as cell growth at 10^-5 M incubated for 48 hrs by sulforhodamine B assay relative to control. The conditions noted are these: SK-MEL-5, 48 h, read-out: Activity.
The subject of test [11] is OVCAR-8. The experiment in a line: Growth inhibition of human OVCAR8 cells assessed as cell growth at 10^-5 M incubated for 48 hrs by sulforhodamine B assay relative to control. The conditions noted are these: OVCAR-8, 48 h, read-out: Activity.
Test [12] deals with A498. The experiment in a line: Growth inhibition of human A498 cells assessed as cell growth at 10^-5 M incubated for 48 hrs by sulforhodamine B assay relative to control. The conditions noted are these: A498, 48 h, read-out: Activity.
The subject of test [13] is RXF 393. The experiment in a line: Growth inhibition of human RXF393 cells assessed as cell growth at 10^-5 M incubated for 48 hrs by sulforhodamine B assay relative to control. Conditions: RXF 393, 48 h, read-out: Activity.
Test [14] relates to T47D. The experiment in a line: Growth inhibition of human T47D cells assessed as cell growth at 10^-5 M incubated for 48 hrs by sulforhodamine B assay relative to control. Conditions: read-out: Activity.
Test [15] relates to MDA-MB-468. Description: Growth inhibition of human MDA-MB-468 cells assessed as cell growth at 10^-5 M incubated for 48 hrs by sulforhodamine B assay relative to control. The conditions noted are these: MDA-MB-468, 48 h, read-out: Activity.
For test [16], the system named is NCI-H23. The experiment in a line: Growth inhibition of human NCI-H23 cells assessed as cell growth at 10^-4 M incubated for 48 hrs by sulforhodamine B assay relative to control. Conditions: NCI-H23, 48 h, read-out: Activity.
In test [17] the test system is NCI-H460. The experiment in a line: Growth inhibition of human NCI-H460 cells assessed as cell growth at 10^-4 M incubated for 48 hrs by sulforhodamine B assay relative to control. Conditions: NCI-H460, 48 h, read-out: Activity.
The subject of test [18] is NCI-H522. Description: Growth inhibition of human NCI-H522 cells assessed as cell growth at 10^-4 M incubated for 48 hrs by sulforhodamine B assay relative to control. Conditions: NCI-H522, 48 h, read-out: Activity.
In test [19] the test system is COLO 205. Description: Growth inhibition of human COLO205 cells assessed as cell growth at 10^-4 M incubated for 48 hrs by sulforhodamine B assay relative to control. Conditions: COLO 205, 48 h, read-out: Activity.
In test [20] the test system is HCC 2998. The experiment in a line: Growth inhibition of human HCC2998 cells assessed as cell growth at 10^-4 M incubated for 48 hrs by sulforhodamine B assay relative to control. Conditions: HCC 2998, 48 h, read-out: Activity.
Test [21] has as its system SF-295. Description: Growth inhibition of human SF295 cells assessed as cell growth at 10^-4 M incubated for 48 hrs by sulforhodamine B assay relative to control. Conditions: SF-295, 48 h, read-out: Activity.
Test [22] has as its system SNB-19. The experiment in a line: Growth inhibition of human SNB19 cells assessed as cell growth at 10^-4 M incubated for 48 hrs by sulforhodamine B assay relative to control. The conditions noted are these: SNB-19, 48 h, read-out: Activity.
For test [23], the system named is SNB-75. Description: Growth inhibition of human SNB75 cells assessed as cell growth at 10^-4 M incubated for 48 hrs by sulforhodamine B assay relative to control. Conditions: SNB-75, 48 h, read-out: Activity.
Test [24] deals with Malme-3M. The experiment in a line: Growth inhibition of human MALME-3M cells assessed as cell growth at 10^-4 M incubated for 48 hrs by sulforhodamine B assay relative to control. The conditions noted are these: read-out: Activity.
Test [25] concerns MDA-MB-435. Description: Growth inhibition of human MDA-MB-435 cells assessed as cell growth at 10^-4 M incubated for 48 hrs by sulforhodamine B assay relative to control. The conditions noted are these: MDA-MB-435, 48 h, read-out: Activity.
Test [26] has as its system SK-MEL-5. The experiment in a line: Growth inhibition of human SK-MEL-5 cells assessed as cell growth at 10^-4 M incubated for 48 hrs by sulforhodamine B assay relative to control. The conditions noted are these: SK-MEL-5, 48 h, read-out: Activity.
The test system of test [27] is UO-31. The experiment in a line: Growth inhibition of human UO31 cells assessed as cell growth at 10^-4 M incubated for 48 hrs by sulforhodamine B assay relative to control. Conditions: UO-31, 48 h, read-out: Activity.
For test [28], the system named is Hs-578T. Description: Growth inhibition of human Hs 578T cells assessed as cell growth at 10^-4 M incubated for 48 hrs by sulforhodamine B assay relative to control. The conditions noted are these: read-out: Activity.
Test [29] deals with BT-549. Description: Growth inhibition of human BT549 cells assessed as cell growth at 10^-4 M incubated for 48 hrs by sulforhodamine B assay relative to control. Conditions: BT-549, 48 h, read-out: Activity.
In test [30] the test system is T47D. The experiment in a line: Growth inhibition of human T47D cells assessed as cell growth at 10^-4 M incubated for 48 hrs by sulforhodamine B assay relative to control. Conditions: read-out: Activity.
Test [31] concerns MDA-MB-468. The experiment in a line: Growth inhibition of human MDA-MB-468 cells assessed as cell growth at 10^-4 M incubated for 48 hrs by sulforhodamine B assay relative to control. Conditions: MDA-MB-468, 48 h, read-out: Activity.
Test [32] relates to SF-295. The experiment in a line: Growth inhibition of human SF295 cells assessed as cell growth at 10^-5 M incubated for 48 hrs by sulforhodamine B assay relative to control. Conditions: SF-295, 48 h, read-out: Activity.
For test [33], the system named is SK-OV-3. Description: Growth inhibition of human SKOV3 cells assessed as cell growth at 10^-5 M incubated for 48 hrs by sulforhodamine B assay relative to control. Conditions: SK-OV-3, 48 h, read-out: Activity.
Test [34] concerns SF-268. Description: Growth inhibition of human SF268 cells assessed as cell growth at 10^-4 M incubated for 48 hrs by sulforhodamine B assay relative to control. Conditions: SF-268, 48 h, read-out: Activity.

For `C#C[C@@]1(O)[C@@H](CO)O[C@@H](n2cc(F)c3c(N)ncnc32)[C@@H]1O`, the growth at 1 µM is -10% in test [1] and 13% in test [2]. Further, the growth at 10 µM in test [3] is -26%; in [4], 1%; in test [5], -33%; in test [6] it was -45%; in [7], 2%; in [8], -78%. For the same compound, the growth at 10 µM was -26% in [9]; -89% in test [10]; -12% in test [11]; -77% in test [12]; -46% in test [13]; -39% in test [14]. The growth at 10 µM in [15] was -57%; in [32], -69%; in test [33], -26%. For the same compound, the growth at 100 µM was -25% in test [16]; -38% in [17]; -40% in test [18]; -63% in test [19]; -71% in [20]; -74% in test [21]. Besides, the growth at 100 µM in [22] is -45%; in test [23], -86%; in test [24], -47%; in test [25], -63%; in [26], -93%; in [27], -30%. Also, the growth at 100 µM was 8% in [28], -42% in test [29], -77% in test [30] and -68% in test [31].

In the case of `C#C[C@@]1(O)[C@@H](CO)O[C@@H](n2ccc3c(N)ncnc32)[C@@H]1O`, the growth at 1 µM in [1] was 30%; in [2], 64%. Also, the growth at 10 µM in [3] is 4%; in [4] it was -24%; in test [5], -29%; in [6], -76%; in test [8], -87%; in [9], -15%. Moreover, the growth at 10 µM in test [10] is -95%; in [11] it was -32%; in test [12], -60%; in test [13], -45%; in test [14], -61%; in test [15] it was -58%. In addition, the growth at 10 µM is -28% in test [32] and -20% in test [33]. Besides, the growth at 100 µM is -35% in test [16]; -13% in [17]; -42% in [18]; -72% in test [19]; -78% in test [20]; -44% in test [21]. Also, the growth at 100 µM was -32% in test [22]; -42% in test [23]; -76% in test [24]; -76% in test [25]; -99% in test [26]; -37% in test [27]. Also, the growth at 100 µM in test [28] is 2%; in test [29], -95%; in [30], -71%; in test [31], -62%; in test [34], -8%.

With `C#C[C@@]1(O)[C@@H](CO)O[C@@H](n2cc(Br)c3c(N)ncnc32)[C@@H]1O`, the growth at 10 µM in test [7] was 1 to 3%.

For `C#C[C@@]1(O)[C@@H](CO)O[C@@H](n2cc(I)c3c(N)ncnc32)[C@@H]1O`, the growth at 100 µM in [34] was -7%.

(Values after ChEMBL document CHEMBL4270599, “Synthesis of a 3'-C-ethynyl-β-d-ribofuranose purine nucleoside library: Discovery of C7-deazapurine analogs as potent antiproliferative nucleosides” (Eur J Med Chem, 2018).)
